Article PMC7926980, “The Antiproliferative and Apoptotic Effect of a Novel Synthesized S-Triazine Dipeptide Series, and Toxicity Screening in Zebrafish Embryos” (Molecules, 2021)

Legend:
HCT-116 cells = assay: MTT cell viability assay, HCT-116; type: cell-based; details: Homo sapiens, 72 h treatment
Method: (§1) The antiproliferative activity of the synthesized compounds was evaluated by the 3-(4,5-dimethylthiazol-2-yl)-2,5-diphenyl tetrazolium bromide (MTT) cell viability assay. Two types of breast cancer cell lines—namely MCF-7, which has estrogen and progesterone receptors, and MDA-MB-231, which is triple negative—were used, in addition to a colon cancer cell line (HCT-116).
(§2) The target products 3a–o were evaluated for their antiproliferative activity using the MTT viability assay of the MCF-7, MDA-MB-231 and HCT-116 cell lines (in triplicate) on at least three independent occasions for the determination of the reported mean values.
(§3) The three human tumor cell lines MCF-7, MDA-MB-231 and HCT-116 were cultured in Dulbecco’s Modified Eagle’s Medium (DMEM) with 10% fetal bovine serum, 2 mM L-glutamine and 100 µg/mL penicillin/streptomycin. The cells were maintained at 37 °C in 5% CO2 in a humidified incubator. All of the cells were sub-cultured 3 times/week by trypsinization using TrypLE Express (1×).
(§4) In order to calculate the relative IC50 values, the antiproliferative effect of compounds 3a–o was tested in three cancer cell lines (MCF-7, MDA-MB-231, HCT-116) and normal epithelial embryonic kidney cells (HEK-293) using the MTT viability assay. The cells were seeded in 96-well plates at a density of 10 × 10^3 cells/mL, in a total volume of 200 µL per well. In total, 0.1% DMSO was used as a vehicle control. […] The culture medium was then removed, and the cells were washed with phosphate-buffered saline (PBS), and 100 µL MTT was added (for a final concentration of 5 mg/mL MTT). The cells were incubated for 4 h in darkness at 37 °C. Next, 200 µL DMSO was added to each well, and the cells were maintained at room temperature in darkness for 20 min. The absorbance was detected with a microplate reader at 570 nm. The results were expressed as a percentage of viability relative to the vehicle control (100%). The dose-response curves were plotted, and the IC50 values were obtained using Prism software (GraphPad Software, Inc., La Jolla, CA, USA). All of the experiments were repeated in three independent experiments.

MDA-MB-231 cells = assay: MTT cell viability assay, MDA-MB-231; type: cell-based; details: Homo sapiens, 72 h treatment
Method: as §1, §2, §3, §4

[1] = Zebrafish embryo mortality/toxicity; type: in vivo; details: wild-type, in vivo; zebrafish embryos, overnight exposure, 0.5 to 1000 µM; mean of three biological replicates ± standard deviation
Method: (§5) The zebrafish embryos were obtained by natural pairwise breeding, and were treated essentially as described previously.
(§6) The compounds were dissolved in dimethylsulfoxide (DMSO) in order to prepare a stock concentration of 10 mM. The embryos treated with 0.10% DMSO (v/v) served as the negative controls.
(§7) The fish were kept following the national and international guidelines for the care and use of laboratory animals. The fertilized eggs were obtained by the natural pairwise breeding of adult fish. The approval of the Ethics Committee for the use and care of laboratory animals was not needed, as zebrafish larvae less than 5 days post fertilization were used.
(§8) A stock solution of 50 mM was prepared by dissolving the compounds in dimethyl sulfoxide (DMSO). At least 30 fertilized eggs were sorted and placed in 60-mm sterile glass Petri dishes. A serial dilution of the compounds was prepared by adding the required amount of the compound directly into 5 mL water, and the zebrafish embryos were then exposed to serial dilutions (0.5 to 1000 µM) of each compound overnight. The number of dead and living embryos were counted after the overnight exposure.

zebrafish embryos [2] = assay: Zebrafish embryo mortality/toxicity; type: in vivo; details: maximum concentration tested 1 mM, versus DMSO control
Method: as §5, §6, §7, §8

MCF-7 cells = assay: MTT cell viability assay, MCF-7; type: cell-based, human; details: Homo sapiens, MCF7, 72 h, 72 h treatment
Method: as §1, §2, §3, §4

zebrafish embryos [3] = assay: Zebrafish embryo imaging (morphology, teratogenicity); type: in vivo; details: 10 µM, embryos at 48 hpf
Description: The treated embryos had cardiac edema, craniofacial defects, tail lesions, and a delay in embryonic development. These observations are consistent with the findings in the literature.
A Zeiss Observer D1 inverted microscope using Zeiss ZEN software was used to capture the images of the live zebrafish embryos.
Figure 6 Representative images of the zebrafish embryos 48 hpf (A) control or (B) treated.

COC(=O)CNC(=O)CNc1nc(Nc2ccc(Cl)cc2)nc(N2CCOCC2)n1 [Compound 3b, Methyl (4-((4-chlorophenyl)amino)-6-morpholino-1,3,5-triazin-2-yl) glycylglycinate]
IC50 (HCT-116 cells): > 50 µM | IC50 (MDA-MB-231 cells): > 50 µM | LC50 [1]: > 1000 µM | toxicity / mortality in zebrafish embryos (zebrafish embryos [2]): did not show any toxicity | IC50 (MCF-7 cells): 6.18 ± 0.46 µM

COC(=O)CNC(=O)CNc1nc(Nc2ccc(OC)cc2)nc(N2CCOCC2)n1 [Compound 3c, Methyl (4-((4-methoxyphenyl)amino)-6-morpholino-1,3,5-triazin-2-yl) glycylglycinate]
IC50 (HCT-116 cells): > 50 µM | IC50 (MDA-MB-231 cells): > 50 µM | LC50 [1]: > 1000 µM | toxicity / mortality in zebrafish embryos (zebrafish embryos [2]): did not show any toxicity | IC50 (MCF-7 cells): 13.5 ± 1.01 µM

COC(=O)C(C)NC(=O)CNc1nc(Nc2ccccc2)nc(N2CCOCC2)n1 (stereo not drawn) [Compound 3d, Methyl (4-morpholino-6-(phenylamino)-1,3,5-triazin-2-yl) glycylalaninate]
IC50 (HCT-116 cells): > 50 µM | IC50 (MDA-MB-231 cells): 16.2 ± 0.63 µM | LC50 [1]: > 1000 µM | toxicity / mortality in zebrafish embryos (zebrafish embryos [2]): did not show any toxicity | IC50 (MCF-7 cells): 3.57 ± 0.81 µM

COC(=O)C(C)NC(=O)CNc1nc(Nc2ccc(Cl)cc2)nc(N2CCOCC2)n1 (stereo not drawn) [Compound 3e, Methyl (4-((4-chlorophenyl)amino)-6-morpholino-1,3,5-triazin-2-yl) glycylalaninate]
IC50 (HCT-116 cells): > 50 µM | IC50 (MDA-MB-231 cells): 8.2 ± 1.68 µM | LC50 [1]: 2.37 ± 0.27 µM | IC50 (MCF-7 cells): 4.35 ± 2.86 µM

COC(=O)C(C)NC(=O)CNc1nc(Nc2ccc(OC)cc2)nc(N2CCOCC2)n1 (stereo not drawn) [Compound 3f, Methyl (4-((4-methoxyphenyl)amino)-6-morpholino-1,3,5-triazin-2-yl) glycylalaninate]
IC50 (HCT-116 cells): > 50 µM | IC50 (MDA-MB-231 cells): 28.1 ± 1.07 µM | LC50 [1]: 28.4 ± 1.18 µM | IC50 (MCF-7 cells): 8.02 ± 0.5 µM

COC(=O)C(NC(=O)CNc1nc(Nc2ccc(Cl)cc2)nc(N2CCOCC2)n1)C(C)C (stereo not drawn) [Compound 3g, Methyl (4-((4-chlorophenyl)amino)-6-morpholino-1,3,5-triazin-2-yl) glycylvalinate]
IC50 (HCT-116 cells): 12.2 ± 1.74 µM | IC50 (MDA-MB-231 cells): 24.1 ± 2.61 µM | LC50 [1]: 132.1 ± 0.86 µM | IC50 (MCF-7 cells): 13.2 ± 0.6 µM

COC(=O)CNC(=O)CNc1nc(Nc2ccccc2)nc(N2CCCCC2)n1 [Compound 3h, Methyl (4-(phenylamino)-6-(piperidin-1-yl)-1,3,5-triazin-2-yl) glycylglycinate]
IC50 (HCT-116 cells): 15.2 ± 2.04 µM | IC50 (MDA-MB-231 cells): > 50 µM | LC50 [1]: 10.1 ± 0.43 µM | IC50 (MCF-7 cells): 19.64 ± 0.08 µM

COC(=O)CNC(=O)CNc1nc(Nc2ccc(Cl)cc2)nc(N2CCCCC2)n1 [Compound 3i, Methyl (4-((4-chlorophenyl)amino)-6-(piperidin-1-yl)-1,3,5-triazin-2-yl) glycylglycinate]
IC50 (HCT-116 cells): 18.5 ± 1.45 µM | IC50 (MDA-MB-231 cells): 22.3 ± 1.87 µM | LC50 [1]: 6.22 ± 0.39 µM | IC50 (MCF-7 cells): 8.37 ± 0.77 µM

COC(=O)CNC(=O)CNc1nc(Nc2ccc(OC)cc2)nc(N2CCCCC2)n1 [Compound 3j, Methyl (4-((4-methoxyphenyl)amino)-6-(piperidin-1-yl)-1,3,5-triazin-2-yl) glycylglycinate]
IC50 (HCT-116 cells): 23.4 ± 3.43 µM | IC50 (MDA-MB-231 cells): > 50 µM | LC50 [1]: 80.15 ± 0.59 µM | IC50 (MCF-7 cells): 25.3 ± 2.75 µM

COC(=O)C(C)NC(=O)CNc1nc(Nc2ccccc2)nc(N2CCCCC2)n1 (stereo not drawn) [Compound 3k, Methyl (4-(phenylamino)-6-(piperidin-1-yl)-1,3,5-triazin-2-yl) glycylalaninate]
IC50 (HCT-116 cells): > 50 µM | IC50 (MDA-MB-231 cells): 13.3 ± 1.12 µM | LC50 [1]: 5.98 ± 0.53 µM | IC50 (MCF-7 cells): 15.3 ± 2.49 µM

COC(=O)C(C)NC(=O)CNc1nc(Nc2ccc(Cl)cc2)nc(N2CCCCC2)n1 (stereo not drawn) [Compound 3l, Methyl (4-((4-chlorophenyl)amino)-6-(piperidin-1-yl)-1,3,5-triazin-2-yl) glycylalaninate]
IC50 (HCT-116 cells): 7.06 ± 0.27 µM | IC50 (MDA-MB-231 cells): 8.31 ± 0.69 µM | LC50 [1]: 4.25 ± 0.38 µM | IC50 (MCF-7 cells): 1.46 ± 0.69 µM

COC(=O)CNC(=O)CCNc1nc(Nc2ccc(Cl)cc2)nc(N2CCOCC2)n1 [Compound 3m, Methyl (3-((4-((4-chlorophenyl)amino)-6-morpholino-1,3,5-triazin-2-yl)amino)propanoyl) glycinate]
IC50 (HCT-116 cells): > 50 µM | IC50 (MDA-MB-231 cells): 26.7 ± 1.32 µM | LC50 [1]: 5.58 ± 0.95 µM | IC50 (MCF-7 cells): 19.7 ± 1.48 µM

COC(=O)C(NC(=O)CCNc1nc(Nc2ccc(Cl)cc2)nc(N2CCOCC2)n1)C(C)C (stereo not drawn) [Compound 3n, Methyl (3-((4-((4-chlorophenyl)amino)-6-morpholino-1,3,5-triazin-2-yl)amino)propanoyl) valinate]
IC50 (HCT-116 cells): 14.4 ± 1.37 µM | IC50 (MDA-MB-231 cells): 8.48 ± 1.71 µM | LC50 [1]: 5.84 ± 1.09 µM | IC50 (MCF-7 cells): 2.35 ± 1.06 µM

COC(=O)C(NC(=O)CCNc1nc(Nc2ccc(Cl)cc2)nc(N2CCCCC2)n1)C(C)C (stereo not drawn) [Compound 3o, Methyl (3-((4-((4-chlorophenyl)amino)-6-(piperidin-1-yl)-1,3,5-triazin-2-yl)amino)propanoyl) valinate]
IC50 (HCT-116 cells): 18.9 ± 2.82 µM | IC50 (MDA-MB-231 cells): 15.7 ± 2.21 µM | LC50 [1]: 1.97 ± 0.27 µM | IC50 (MCF-7 cells): 4.64 ± 1.58 µM

CC/C(=C(\c1ccccc1)c1ccc(OCCN(C)C)cc1)c1ccccc1 [Tamoxifen, reference compound]
teratogenic effect in zebrafish embryos (zebrafish embryos [3]): severe teratogenic effect
